Experimental data taken from patent publication US7795215B2, “MNTF peptides and compositions and methods of use” (Genervon Biopharmaceuticals LLC, priority 2003, dated 2010).
Entries after “also recorded” stand apart in the source; their conditions may differ. Where no end group is shown, it is not given here.

How the values were obtained:
rat femoral nerve = experiment: Femoral nerve model, MNTF pump experiments (Preferential Motor Reinnervation); assay type: in vivo
Procedure: The specificity of motor axon regeneration was investigated in the rat femoral nerve. Proximally, at the site of nerve transection and suture, axons that contribute to both cutaneous and muscle branches intermingle throughout the nerve. As these axons regenerate, they have equal access to neighboring motor and sensory Schwann cell tubes in the distal nerve stump. This assures an element of “choice” at the axonal level. Distally, where the specificity of regeneration is assessed, axons are segregated into terminal cutaneous and muscle branches. Motor axons are normally found only in the muscle branch, so any motor reinnervation of the cutaneous branch represents a pathfinding failure. The specificity of axon regeneration is evaluated by simultaneous application of horseradish peroxidase (HRP) to one distal femoral branch and fluoro-gold (FG) to the other. Motor-axon regeneration is random at 3 weeks, but the number of correct projections to muscle increases dramatically at later times. Many neurons initially contain both tracers, and thus project collaterals to both cutaneous and muscle branches. The number of these double-labeled neurons decreases with time. Motor axon collaterals are thus pruned from the cutaneous branch, increasing the number of correct projections to muscle at the expense of double-labeled neurons. A specific interaction thus occurs between regenerating motor axons and muscle and/or muscle nerve that we have termed Preferential Motor Reinnervation (PMR).
In preliminary experiments we attempted to modify motor axon regeneration in the femoral nerve by pumping MNTF 33mer at 10^−4 M onto the repair site, using an Alzet osmotic pump which discharges for at least 2 weeks. The output of the pump was sewn to muscle adjacent to the nerve repair, so that the nerve wound would be continuously bathed with the factor. Reinnervation of the distal femoral cutaneous and muscle branches was quantified with tracers as described above.
In a follow-up experiment MNTF 33mer was administered to eight transected and sutured rat femoral nerves at 10^−4 M, essentially as described above. Controls were a group of six nerves that underwent routine suture with pumps delivering saline but no MNTF. A mean of 100 motoneurons projected correctly in the six controls, whereas a mean of 87 motoneurons projected incorrectly to skin.
To determine if a truncated MNTF peptide could be substituted for MNTF 33mer, subsequent experiments were performed, essentially as described above, using the MNTF 6mer FSRYAR, at 10^−4 M (n=8), 10^−5 M (n=8) and 10^−6 M (n=8), with a total of 22 saline controls for comparison. […] Thus the 6mer is capable of promoting selective reinnervation of target muscles in a manner similar to the MNTF1 33mer.

[1] = test system: VSC4.1 cells, a motor neuron/neuroblastoma cell hybrid; experiment: VSC4.1 cell proliferation assay (BrdU); assay type: cell-based; details: for Biological Function / OD (optimal dose): VSC4.1 proliferation; for maximal increase in cell proliferation: % increase over control; for effect on proliferation of motor neuron/neuroblastoma cells (summary in description): in vitro
Procedure: Studies of proliferation were performed in 96 well plates utilizing a cell proliferation assay kit from Roche Diagnostics GmbH (Mannheim, Germany). VSC4.1 cells, a motor neuron/neuroblastoma cell hybrid, were cultured in DMEM with 2% FBS containing either no MNTF or a dose range of MNTF from 10^−8 to 10^−5 g/ml. Each treatment was applied in triplicate wells. The cells were cultured for 21 hours and 5-bromo-2′-deoxyuridine (BrdU) from the assay kit was added to each well. After BrdU labeling for 3 hours, the cells were washed, fixed and dried. The cells were then fixed and the DNA denatured to improve access for the subsequent antibody binding. POD-labeled mouse monoclonal anti-BrdU antibody from the assay kit was applied for 2 hours, followed by a wash. The assay was quantitated by adding the colorimetric assay solution (tetramethyl benzidine) and reading at 450 nm on a Wallac Vector 2 plate reader. Cells in the treatment groups were quantitated by comparing to wells plated with a gradient of cells from 0 to 20,000 cells/well on the same plate. Data is expressed as % of control to allow for variability from plate to plate.
Additional cell proliferation assays, conducted essentially as described above, were performed to compare the effects of several GLP grade MNTF peptides.
Further cell proliferation studies were performed, essentially as described above, to test the response of the motor neuron/neuroblastoma cells to three new preparations of MNTF. The MNTF preparations utilized for these assays were: […]

[2] = follow-up experiment, 10^−4 M, eight nerves, saline pump controls
[3] = preliminary experiments, 10^−4 M by Alzet osmotic pump, three weeks, three animals
[4] = earliest studies, FIG. 2, listed as GLP grade MNTF 33mer
[5] = earliest studies, FIG. 2, listed as MNTF 33mer (research grade)
[6] = 10^−4 M, 10^−5 M and 10^−6 M, FIG. 5, vs saline controls

Q: Which results are given for “33mer: 33 amino acid MNTF1-F6 fragment, SEQ ID NO:1, made by solid phase synthesis; positive control in cell proliferation assays (LGTFWGDTLNCWMLSAFSRYARCLAEGHDGPTQ) [reference compound]”?
A: correct projections of motoneurons to muscle (mean) (rat femoral nerve; [2]): 173; incorrect projections of motoneurons to skin (mean) (rat femoral nerve; [2]): 59; correct projections of motoneurons to muscle (mean) (rat femoral nerve; [3]): 210; incorrect projections of motoneurons to skin (mean) (rat femoral nerve; [3]): 31; Biological Function ([1]; assay set Aug. 4, 2003): Effective; OD (optimal dose) ([1]; assay set Aug. 4, 2003): 0.01 µg/mL; Biological Function ([1]; assay set Mar. 28, 2003): Effective; OD (optimal dose) ([1]; assay set Mar. 28, 2003, listed as 33mer GLPg, L): 10 µg/mL; OD (optimal dose) ([1]; assay set Mar. 28, 2003, listed as 33mer Rg, L): 100 µg/mL; Biological Function ([1]; assay set Oct. 27, 2002): Effective; OD (optimal dose) ([1]; assay set Oct. 27, 2002, listed as 33mer GLPg, L): 0.1 µg/mL; OD (optimal dose) ([1]; assay set Oct. 27, 2002, listed as 33mer Rg, L): 10 µg/mL; maximal increase in cell proliferation [1, 4]: 34.3%; maximal increase in cell proliferation [1, 5]: 31.7%; relative effectiveness in proliferation assay (words) ([1]; earliest studies, FIG. 2, listed as GLP grade 33mer): most biologically active; dose of maximal response [1, 4]: 0.1 µg/mL; relative effectiveness in proliferation assay (words) [1, 4]: most effective in this assay; dose of maximal response [1, 5]: 10 µg/mL; effect on proliferation of motor neuron/neuroblastoma cells (summary in description) [1]: effective at increasing the proliferation of motoneuron/neuroblastoma cells; peak fold response in proliferation ([1]; second set, FIG. 3, at 10 μg/ml): 3 fold; fold increase in proliferation ([1]; second set, FIG. 3, highest dose): ~3 fold; relative effectiveness in proliferation assay (words) ([1]; third set, FIG. 4): significantly (p<0.05) stimulated proliferation over control; also recorded: nearly as well as the 10mer at low doses; also recorded: clearly superior to the 21mer

Q: How did the “correct projections” value (rat femoral nerve; [6]) turn out when FSRYAR [6mer] was run?
A: Its value is “significant increases in correct projections at every dose tested”.

Q: And the “incorrect projections to skin” value (rat femoral nerve; [6])?
A: The value was “marked reductions in the number of incorrect projections to skin”.

Q: What about the “Biological Function” value ([1]; assay set Mar. 28, 2003) of the same substance?
A: Its value is “Effective”.

Q: And the “OD (optimal dose)” value ([1]; assay set Mar. 28, 2003)?
A: The value was 1 µg/mL.

Q: What about the “Biological Function” value ([1]; assay set Oct. 27, 2002) of the same substance?
A: Its value is “Effective”.

Q: And the “OD (optimal dose)” value ([1]; assay set Oct. 27, 2002)?
A: Its value is 10 µg/mL.

Q: What about the “dose of maximal response” value ([1]; earliest studies, FIG. 2) of the same substance?
A: The value was 10 µg/mL.

Q: What about the “relative effectiveness in proliferation assay (words)” value (shortened to “relative effectiveness”) ([1]; earliest studies, FIG. 2) of the same substance?
A: Its value is “comparably effective”.

Q: And the “maximal increase in cell proliferation” value ([1]; earliest studies, FIG. 2)?
A: Its value is 35.1%.

Q: What about the “effect on proliferation of motor neuron/neuroblastoma cells (summary in description)” value [1] of the same substance?
A: The value was “sufficient to increase cell proliferation of motor neuron/neuroblastoma cells”.

Q: What about the “relative effectiveness” value ([1]; second set, FIG. 3) of the same substance?
A: The value was “poorest performers; also recorded: less effectively than the others”.

Q: And the “fold increase in proliferation” value ([1]; second set, FIG. 3, at 1 μg/ml)?
A: The value was roughly 2.5 fold.

Q: Which “Biological Function” value ([1]; assay set Oct. 27, 2002) does the source give for “cyclized MNTF 13mer: cyclized version of the 13-mer CWMLSAFSRYARC, SEQ ID NO:6, research grade (also: cyclized)” here?
A: Its value is “Limited Efficacy”.

Q: What about the “dose of maximal response” value ([1]; earliest studies, FIG. 2) of the same substance?
A: Its value is 1 µg/mL.

Q: And the “relative effectiveness” value ([1]; earliest studies, FIG. 2)?
A: Its value is “least effective of all peptides tested”.

Q: And the “maximal increase in cell proliferation” value ([1]; earliest studies, FIG. 2)?
A: The value was 17.3%.

Q: What about the “effect on proliferation at higher doses” value ([1]; earliest studies, FIG. 2, higher doses) of the same substance?
A: The value was “appeared to inhibit proliferation”.

Q: What about the “relative effectiveness” value ([1]; earliest studies, FIG. 2, listed as cyclized 13mer) of the same substance?
A: Its value is “markedly less effective”.

Q: And the “effect on proliferation of motor neuron/neuroblastoma cells (summary in description)” value [1]?
A: The value was “not as effective at stimulating cell proliferation in vitro”.
